This is an account of results in ChEMBL document CHEMBL5537157, “Selective Antitumor Effect and Lower Toxicity of Mitochondrion-Targeting Derivatization of Triptolide” (J Med Chem, 2024).

Active and inactive are the calls of the source. The rule behind the calls is not given here.

A short description of data set [1]: Renal toxicity in zebrafish assessed as increase in TNF-alpha expression at 2 uM treated for 48 hrs by RT-qPCR analysis. Further details: species or system Danio rerio. Conditions: in vivo.
Data set [2] in a line: Toxicity in zebrafish embryo assessed as liver development at 2 uM with replacement of new growth solution daily by fluorescence microscopy (reference value: 100.00 +/- 8.64 %). Format: tissue-based, Danio rerio. As to conditions: in vivo.
Data set [3] is described as follows: Toxicity in zebrafish embryo assessed as liver function at 1 uM with replacement of new growth solution daily by fluorescence microscopy (reference value: 100 +/- 8.89 %). Conditions: in vivo. Format: tissue-based, Danio rerio.
A short description of data set [4]: Renal toxicity in fluorescent transgenic zebrafish at 0.5 to 1 uM treated for 48 hrs by fluorescence microscopy. Further details: species or system Danio rerio. As to conditions: in vivo, dose 0.5-1 µM.
In data set [5] the test system is NCI-H1975. The data set is described as follows: Induction of apoptosis in human NCI-H1975 cells assessed as nuclear shrinkage at 400 nM incubated for 24 hrs by DAPI staining based analysis. Type of data set: functional, cell-based.
Data set [6] in a line: Renal toxicity in zebrafish assessed as yolk sac absorption at 0.5 to 4 uM treated at 3 hrs post-fertilization measured at 48 hrs post-compound treatment by FITC staining based microscopy. Further details: species or system Danio rerio. As to conditions: in vivo, dose 0.5-4 µM.
For data set [7], the system named is BEAS-2B. The data set is described as follows: Inhibition of mitochondrial membrane potential in human BEAS-2B cells at 200 nM incubated for 24 hrs by JC-1 staining based flow cytometry. Type of data set: toxicity, cell-based. Conditions: 0.2 µM.
Data set [8] in a line: Toxicity in zebrafish embryo assessed as damage effect in liver development at 1 uM with replacement of new growth solution daily by fluorescence microscopy relative to control. Type of data set: tissue-based, Danio rerio. As to conditions: in vivo.
The species entered for data set [9] is Danio rerio. The data set is described as follows: Induction of ROS production in zebrafish at 2 uM measured after 48 hrs by fluorescence microscopy. Type of data set: functional, organism-based.
The nature of data set [10]: Developmental toxicity in zebrafish AB zygotes assessed as decrease in body length treated at 6 hrs post-fertilization measured at 24 to 72 hrs post-fertilization. Conditions: in vivo, dose lower 0.25 µM, time lower 18 hrs, dose upper 4 µM, time upper 66 hrs. Further details: species or system Danio rerio.
The subject of data set [11] is NCI-H460. The data set is described as follows: Cytotoxicity against human NCI-H460 cells assessed as cell growth inhibition incubated for 48 hrs by MTT assay. Type of data set: functional, cell-based.
In data set [12] the test system is HepG2. The data set is described as follows: Cytotoxicity against human HepG2 cells assessed as cell growth inhibition incubated for 48 hrs by MTT assay. Type of data set: functional, cell-based. Conditions: dose 4.5-10 nM.

Regarding `CC(C)[C@]12O[C@H]1[C@@H]1O[C@]13[C@]1(O[C@H]1C[C@H]1C4=C(CC[C@@]13C)C(=O)OC4)[C@@H]2OC(=O)CCCCCCCC[n+]1ccc(/C=C/c2c[nH]c3ccccc23)cc1.[Br-]`, the Activity entry in data set [1] is given as “Toxic”; in data set [2] it was 41.79%; in [3], 27.18%; in data set [4], “Non-Toxic”; in data set [6] it was “Non-Toxic”; in data set [7], “Non-Toxic”. For the same compound, the Activity in [8] is listed as 23.76%; in data set [10] it was “Dose-Dependent Effect”. In addition, the outcome in data set [5] and in data set [9] was Active.

Consider `CC(C)[C@]12O[C@H]1[C@@H]1O[C@@]13[C@@]1(C)CCC4=C(COC4=O)[C@@H]1C[C@@H]1O[C@@]13C2=O` [TRIPTONIDE], for which the inhibition result in data set [11] is “Dose-Dependent Effect”. In [12], the inhibition result was “Active”.
